Test results published in article PMC6927504, “Screening of House Dust from Chinese Homes for Chemicals with Liver X Receptors Binding Activities and Characterization of Atherosclerotic Activity Using an in Vitro Macrophage Cell Line and ApoE^−/− Mice” (Environmental Health Perspectives, 2019).

System: mouse peritoneal macrophages
Assay: NBD-cholesterol efflux in peritoneal macrophages isolated from exposed C57BL/6 mice
Format: in vivo
Details: 200 mg/kg BW for 7 d
Experimental: RAW264.7 cells or mouse peritoneal macrophages were plated in 96-well plates at 10^4 cells/well and cultured with DMEM-F12 containing 10% FBS and 1μg/mL 22-[N-(7-nitrobenz-2-oxa-1,3-diazol-4-yl)amino]-23,24-bisnor-5-cholen-3β-Ol (NBD-cholesterol) for 24 h. Subsequently, the medium was completely removed and fresh DMEM-F12 containing 10% FBS and 0.1% DMSO (control; n=3 ) or TPHP at the concentration of 1–20,000 nM ( n=3 per group) was added. After a further 24-h incubation, the cells were washed with phosphate-buffered saline (PBS) and then incubated with serum-free medium containing ApoA-I ( 20μg/mL ) or high-density lipoprotein (HDL; 50μg/mL ) for 4 h. Then the medium was collected, and the cells were lysed with a cell lysis buffer. NBD-cholesterol in the medium and cell lysis buffer were measured, respectively, using a Tecan Infinite® M1000Pro Microplate Reader (Tecan Group Ltd.) at 485-nm excitation wavelength and 535-nm emission wavelength. Cholesterol efflux was expressed as a percentage of fluorescence in the medium relative to the total amount of fluorescence.
All experiments related to animals were approved by the institutional animal care and use committee of Peking University and followed the guidelines for animal experiments of the university as well as for experimental animals in China. […] Body weight (BW) was measured every week during the dosing period. […]

O=P(Oc1ccccc1)(Oc1ccccc1)Oc1ccccc1 [TPHP, triphenyl phosphate]
ApoA-I-mediated cholesterol efflux in peritoneal macrophages: Significant inhibition
HDL-mediated cholesterol efflux in peritoneal macrophages: Significant inhibition
